Our source for the IC50 values is BindingDB's records for patent WO2022064009 (JANSSEN PHARMACEUTICA NV, 2022).

The target in the assay is CDK-activating kinase assembly factor MAT1/Cyclin-H/Cyclin-dependent kinase 7 (Homo sapiens, UniProt P50613). Briefly: n Vitro CDK7 (20 nM) Assay. As to the method:
Compounds with potencies approaching the limit of detection of the assay (IC50 < 10 nM) were further assessed in a more sensitive fluorescence end-point assay. […] Absorbance at 340 nm was followed kinetically at an interval of 2 minutes for 8 hours.The assay was carried out with 100 μl reaction volume per well in a 384-well plate that was pre-spotted nanoliter volume of compounds by LabCyte Echo 555. Compound dilution plates were made by 2-fold (could vary upon necessity) dilution in DMSO for 11 concentrations plus a DMSO control of uninhibited reaction. 2x substrate and coupling reagent mixture was added to the assay plate followed by an addition of an equal volume of 40 nM CDK7/Cyclin H/MAT-1 complex. After mixing, assay plates were spun at 2000 rpm for 3 minutes and then transferred to the plate reader for data collection.

Sequence of CDK-activating kinase assembly factor MAT1/Cyclin-H/Cyclin-dependent kinase 7 (P51946 whole entry): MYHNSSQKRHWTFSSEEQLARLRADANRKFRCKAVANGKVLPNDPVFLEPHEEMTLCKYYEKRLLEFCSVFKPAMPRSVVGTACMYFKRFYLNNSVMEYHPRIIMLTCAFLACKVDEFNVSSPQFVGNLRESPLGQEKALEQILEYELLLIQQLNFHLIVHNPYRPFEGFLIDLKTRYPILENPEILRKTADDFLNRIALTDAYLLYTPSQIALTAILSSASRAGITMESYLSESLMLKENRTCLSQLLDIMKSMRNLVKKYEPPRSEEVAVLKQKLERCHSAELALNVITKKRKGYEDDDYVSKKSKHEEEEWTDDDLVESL
Sequence of CDK-activating kinase assembly factor MAT1/Cyclin-H/Cyclin-dependent kinase 7 (P50613 whole entry): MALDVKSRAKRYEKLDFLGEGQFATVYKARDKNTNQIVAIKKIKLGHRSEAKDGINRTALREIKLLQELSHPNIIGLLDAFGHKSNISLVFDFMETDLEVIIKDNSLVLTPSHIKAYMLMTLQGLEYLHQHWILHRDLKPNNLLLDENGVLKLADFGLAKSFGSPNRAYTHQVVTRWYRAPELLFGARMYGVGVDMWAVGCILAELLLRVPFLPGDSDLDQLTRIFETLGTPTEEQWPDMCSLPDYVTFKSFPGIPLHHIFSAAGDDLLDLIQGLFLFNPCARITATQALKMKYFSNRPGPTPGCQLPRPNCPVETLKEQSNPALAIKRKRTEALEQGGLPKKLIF
Sequence of CDK-activating kinase assembly factor MAT1/Cyclin-H/Cyclin-dependent kinase 7 (P51948 whole entry, further chain): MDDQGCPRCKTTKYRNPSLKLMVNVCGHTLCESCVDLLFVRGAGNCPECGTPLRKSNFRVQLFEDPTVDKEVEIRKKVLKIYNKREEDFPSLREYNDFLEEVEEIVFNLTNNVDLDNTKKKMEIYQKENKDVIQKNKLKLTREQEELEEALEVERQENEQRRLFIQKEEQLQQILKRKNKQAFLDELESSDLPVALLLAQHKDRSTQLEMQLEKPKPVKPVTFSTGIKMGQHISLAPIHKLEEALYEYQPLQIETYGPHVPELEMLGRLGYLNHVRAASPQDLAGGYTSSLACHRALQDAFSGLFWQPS

As for `C[C@@H]1Cc2cnc(NC3CCOCC3)nc2CN1C(=O)[C@H]1CCN(C2COC2)C[C@@H]1c1ccccc1` [WO2022064009, Compound 159], the IC50 (as a rule, the concentration that inhibits the measured activity by half) is 575 nM.
